This is an account of results in US11572373B2, “Maytansinoid-based drug delivery systems” (LADRX CORPORATION, priority 2017, dated 2023).

Data set [1] can be described thus: Stability of maytansinoids and maytansinoid-HSA conjugates in CD1 mouse plasma. Type of data set: in vitro ADME. The note with it: 37° C., 30 μM. The procedure:
(§1) For studying the stability of the maytansinoids as wells as the maytansinoid-HSA conjugates in CD1 and human plasma the compounds were incubated at 37° C. for 24 hours. Remaining free maytansinoid or release of the respective maytansinoid was quantified by LC-MS/MS (or HPLC) at certain time points.
(§2) Pooled CD1 mouse or human plasma (K2EDTA, Innovative research) was centrifuged (1 min at 12,044 g). The supernatant was first filtered through a filter needle (5 μm, sterile, Becton Dickinson) and subsequently through a cellulose acetate membrane (0.45 μm, sterile, Carl Roth). The filtered plasma (1710 μL) was preincubated at 37° C. for 30 min in a heating block. The free maytansinoid or albumin-binding maytansinoid as a 300 μM stock solution in DMSO (190 μL) was added to the preincubated plasma sample to produce a 30 μM solution of the respective maytansinoid or maytansinoid-HSA conjugate. The mixture was allowed to react for 10 min at 37° C. and then at each time point (0, 1, 2, 3, 4, 5, 21, and 24 hours) three samples (70 μL) were taken into a 96-well plate, sealed with a plastic mat, immediately frozen with liquid nitrogen and stored at −20° C. At the end of the experiment, the 96-well plate was thawed at room temperature. The samples (30 μL) were then directly transferred via a multichannel pipette into a 96-well Impact™ protein precipitation plate (Strata®) which was once washed with MeCN (150 μL) and then loaded with the internal standard (120 μL, MeCN containing 5 μg/mL maytansine). The Impact™ precipitation plate was sealed with a silicone mat and shaken for 2 min 420 rpm. The Impact™ precipitation plate was then placed onto a 96-well sample manifold and the filtrate was collected into another 96-well plate by applying mild vacuum. The 96-well plate was sealed with a silicone mat and kept at room temperature until LC-MS/MS quantification. The filtrate was injected into the LC-MS for quantification using the MRM mode. […]

Data set [2] can be described thus: Stability of maytansinoids and maytansinoid-HSA conjugates in human plasma. Type of data set: in vitro ADME. The note with it: 37° C., 30 μM. The procedure:
as §1, §2

A short description of data set [3]: In vitro cytotoxicity in different cell lines using the CellTiter-Blue Cell Viability Assay. Type of data set: cell-based, human. The note with it: Homo sapiens; geometric mean over the n cell lines tested, 96 h treatment, CellTiter-Blue; read-out: Geomean IC50. For orientation: Resazurin is reduced to fluorescent resorufin, in cell work by metabolically active cells.

Data set [4] concerns cancer cell lines (LXFL 529, RKO, SW-620, CAL-27, LXFL 1674L, MDA-MB 468, SK-OV-3, PAXF 1657, MCF7, COLO 205, MDA-MB 231, BT-474, Hep G2). Described as above. It is filed as cell-based, human. To be noted: geometric mean over the n cell lines tested, 96 h treatment, CellTiter-Blue; read-out: Geomean IC50.

As to `COc1cc2cc(c1Cl)N(C)C(=O)C[C@H](OC(=O)COc1cccc(C(C)=O)c1)[C@]1(C)O[C@H]1[C@H](C)[C@@H]1C[C@@](O)(NC(=O)O1)[C@H](OC)/C=C/C=C(\C)C2` [Compound 3], the “% of free maytansinoid remaining after 24 h” value is reported as 40.8% in data set [1] and 69.6% in data set [2]. Moreover, the IC50 in data set [3] is 0.1 nM.

As for `COc1cc2cc(c1Cl)N(C)C(=O)C[C@H](OC(=O)Cc1ccc(C(C)=O)cc1)[C@]1(C)O[C@H]1[C@H](C)[C@@H]1C[C@@](O)(NC(=O)O1)[C@H](OC)/C=C/C=C(\C)C2` [Compound 4], the entries for the “% of free maytansinoid remaining after 24 h” value in data set [1] and in data set [2] were 65.2% and 75.6%, respectively. For the same compound, the IC50 in data set [3] is 0.16 nM.

Take `COc1cc2cc(c1Cl)N(C)C(=O)C[C@H](OC(=O)[C@H](C)N(C)C(=O)CCS)[C@]1(C)O[C@H]1[C@H](C)[C@@H]1C[C@@](O)(NC(=O)O1)[C@H](OC)/C=C/C=C(\C)C2` [DM1, reference compound]: the IC50 in data set [4] came to 3.22 nM.

Consider `COc1cc2cc(c1Cl)N(C)C(=O)C[C@H](OC(=O)[C@H](C)N(C)C(=O)CCSSC)[C@]1(C)O[C@H]1[C@H](C)[C@@H]1C[C@@](O)(NC(=O)O1)[C@H](OC)/C=C/C=C(\C)C2` [DM1-SMe, reference compound], for which the IC50 in data set [4] is 1.3 nM.

As a reminder, the IC50 is the concentration at which inhibition is half-maximal.
